This is an account of results in DBAASP.

Holding throughout (assay): ≥ marks a high value that may be exact or a test limit, other limits are often not marked, values filed in µg/mL are converted to µM
Assay [1] concerns Staphylococcus epidermidis ATCC 35984.
In assay [2] the test system is Staphylococcus aureus ATCC 33591.
Assay [3] has as its system Staphylococcus aureus ATCC 25923.
Assay [4] has as its system Escherichia coli ATCC 25922.
Assay [5] concerns Staphylococcus aureus ATCC 2592.
The subject of assay [6] is Candida albicans SC5314.
In assay [7] the test system is Bacillus subtilis.
For assay [8], the system named is Staphylococcus aureus KCCM 40510.
In assay [9] the test system is Salmonella typhimurium KCTC 1926.
Assay [10] concerns Escherichia coli KCTC 1682.
In assay [11] the test system is Pseudomonas aeruginosa KCTC 1637.
Assay [12] relates to Staphylococcus aureus KCTC 1621.
In assay [13] the test system is Staphylococcus epidermidis KCTC 1917.
Assay [14] has as its system Enterococcus faecium ATCC 51559.
The subject of assay [15] is Enterococcus faecium KCCM 12118.
Assay [16] relates to Bacillus subtilis KCTC 3068.
Assay [17] deals with Enterococcus faecalis ATCC 51575.
In assay [18] the test system is Enterococcus faecalis KCCM 29212.
Assay [19] deals with Pectobacterium carotovorum subsp. carotovorum DSM 30168.
Assay [20] concerns Clavibacter michiganensis subsp. michiganensis DSM 46294.
Assay [21] concerns Botrytis cinerea.
The subject of assay [22] is Pseudomonas syringae pv. syringae DSM 10604.
Assay [23] concerns Cladosporium herbarum.
The subject of assay [24] is Pseudomonas syringae pv. tomato DC3000.
The test system of assay [25] is Pseudomonas corrugata DSM 7228.
Assay [26] has as its system Fusarium solani.
In assay [27] the test system is Xanthomonas vesicatoria DSM 50861.
The test system of assay [28] is Alternaria alternata.
For assay [29], the system named is Psychrobacter faecalis X29.
Assay [30] deals with Nocardia asteroides 201118.
The subject of assay [31] is Candida glabrata 090902.
The subject of assay [32] is Enterococcus faecalis 981.
Assay [33] concerns Pseudomonas aeruginosa ATCC 27853.

≈ marks a conversion by molar mass, not a printed value.

In general, MIC refers to the least concentration at which growth counts as inhibited. A lower MIC goes with inhibition by little substance. On to `CC[C@H](C)[C@H](NC(=O)CN)C(=O)NCC(=O)N[C@@H](CCCCN)C(=O)N[C@@H](Cc1ccccc1)C(=O)N[C@@H](CC(C)C)C(=O)N[C@@H](CCCCN)C(=O)N[C@@H](CCCCN)C(=O)N[C@@H](C)C(=O)N[C@@H](CCCCN)C(=O)N[C@@H](CCCCN)C(=O)N[C@@H](Cc1ccccc1)C(=O)NCC(=O)N[C@@H](CCCCN)C(=O)N[C@@H](C)C(=O)N[C@@H](Cc1ccccc1)C(=O)N[C@H](C(N)=O)C(C)C` [GIGKFLKKAKKFGKAFV], for which the MIC in [1] was 3.03 µM (≈ 5.65 µg/mL); in assay [2], no less than 48.5 µM; in assay [3], 17.1 µM (≈ 32 µg/mL).

On to `CC(C)[C@H](N)C(=O)N[C@@H](CCCCN)C(=O)N[C@@H](CCCN=C(N)N)C(=O)N[C@@H](Cc1c[nH]c2ccccc12)C(=O)N[C@@H](CCCCN)C(=O)N[C@@H](CCCCN)C(=O)N[C@@H](Cc1c[nH]c2ccccc12)C(=O)N[C@@H](Cc1ccccc1)C(=O)N[C@@H](CCCN=C(N)N)C(=O)N[C@@H](CCCCN)C(=O)N[C@@H](Cc1c[nH]c2ccccc12)C(=O)N[C@@H](CCCCN)C(=O)N[C@@H](CCCCN)C(=O)N[C@@H](Cc1c[nH]c2ccccc12)C(=O)N[C@H](C(N)=O)C(C)C` [VKRWKKWFRKWKKWV], for which the MIC in assay [4] turned out to be 2.1 µM (≈ 4.6 µg/mL); in [5] it was 8.5 µM (≈ 18.6 µg/mL); in assay [6], 4.3 µM (≈ 9.41 µg/mL); in assay [7], 4.3 µM (≈ 9.41 µg/mL).

Regarding `CC[C@H](C)[C@H](NC(=O)[C@H](CCCCN)NC(=O)[C@H](CCCN=C(N)N)NC(=O)[C@H](CC(C)C)NC(=O)[C@H](C)NC(=O)[C@H](CCCCN)NC(=O)[C@H](CS)NC(=O)[C@H](CC(C)C)NC(=O)[C@@H](N)CC(C)C)C(N)=O` [LLCKALRKI], the MIC in assay [8], in assay [9], in assay [10], in [11], in assay [12] and in assay [13] was 7.57 µM (≈ 7.99 µg/mL) each time. Also, the MIC worked out at 1.89 µM (≈ 2 µg/mL) in [14]; 3.78 µM (≈ 4 µg/mL) in assay [15]; 3.78 µM (≈ 4 µg/mL) in [16]; 30.3 µM (≈ 32 µg/mL) in [17]; 7.57 µM (≈ 7.99 µg/mL) in assay [18].

Turning to `CC[C@H](C)[C@H](NC(=O)[C@H](CS)NC(=O)[C@H](CC(C)C)NC(=O)[C@@H](N)CC(C)C)C(=O)N[C@@H](C)C(=O)N[C@@H](CC(C)C)C(=O)N[C@@H](CCCN=C(N)N)C(=O)N[C@@H](CCCCN)C(=O)N[C@@H](CCCCN)C(N)=O` [LLCIALRKK], the MIC in [8] is 7.57 µM (≈ 7.99 µg/mL); in assay [9], 3.78 µM (≈ 4 µg/mL); in [10] it was 3.78 µM (≈ 4 µg/mL); in assay [11], 7.57 µM (≈ 7.99 µg/mL); in [12], 7.57 µM (≈ 7.99 µg/mL); in assay [13] it was 3.78 µM (≈ 4 µg/mL). Moreover, the MIC is 1.89 µM (≈ 2 µg/mL) in [14]; 7.57 µM (≈ 7.99 µg/mL) in assay [15]; 3.78 µM (≈ 4 µg/mL) in assay [16]; 0.946 µM (≈ 0.999 µg/mL) in assay [17]; 0.946 µM (≈ 0.999 µg/mL) in assay [18].

With `C[C@H](NC(=O)[C@H](Cc1cnc[nH]1)NC(=O)[C@H](CO)NC(=O)[C@@H](N)CC(=O)O)C(=O)N[C@@H](CCCCN)C(=O)N[C@@H](CCCN=C(N)N)C(=O)N[C@@H](Cc1cnc[nH]1)C(=O)N[C@@H](Cc1cnc[nH]1)C(=O)NCC(=O)N[C@H](C(=O)N[C@@H](CCCCN)C(=O)N[C@@H](CCCN=C(N)N)C(=O)N[C@@H](CCCCN)C(=O)N[C@@H](Cc1ccccc1)C(=O)N[C@@H](Cc1cnc[nH]1)C(=O)N[C@@H](CCC(=O)O)C(=O)N[C@@H](CCCCN)C(=O)N[C@@H](Cc1cnc[nH]1)C(=O)N[C@@H](Cc1cnc[nH]1)C(=O)N[C@@H](CO)C(=O)N[C@@H](Cc1cnc[nH]1)C(=O)N[C@@H](CCCN=C(N)N)C(=O)NCC(=O)N[C@H](C(=O)O)[C@@H](C)O)[C@@H](C)O` [DSHAKRHHGTKRKFHEKHHSHRGT], the MIC in [19], in [20], in [21], in [22], in assay [23] and in assay [24] was 22 µM (≈ 64 µg/mL) in each case. The MIC in assay [25] was found to be 22 µM (≈ 64 µg/mL); in assay [26], 5.49 µM (≈ 16 µg/mL); in assay [27] it was 22 µM (≈ 64 µg/mL); in [28], 22 µM (≈ 64 µg/mL).

As to `CC[C@H](C)[C@H](NC(=O)[C@H](CC(C)C)NC(=O)CNC(=O)[C@@H]1CCCN1C(=O)[C@H](CC(C)C)NC(=O)[C@@H](N)Cc1ccccc1)C(=O)N[C@@H](CCCCN)C(=O)N[C@H](C(=O)N[C@@H](C)C(=O)N[C@H](C(=O)NCC(=O)N[C@H](C(=O)NCC(=O)N[C@@H](CO)C(=O)N[C@H](C(=O)N[C@H](C(=O)N[C@@H](CC(C)C)C(=O)N[C@H]1CSSC[C@@H](C(=O)O)NC(=O)[C@H](CCCCN)NC(=O)[C@H](CCCCN)NC(=O)[C@H]([C@@H](C)O)NC(=O)[C@H]([C@@H](C)CC)NC(=O)[C@H](CCCCN)NC1=O)[C@@H](C)CC)[C@@H](C)O)C(C)C)C(C)C)C(C)C` [FLPGLIKVAVGVGSTILCKITKKC], the MIC was no less than 50 µM in [29]; 3.1 µM (≈ 7.71 µg/mL) in assay [30]; 6.3 µM (≈ 15.7 µg/mL) in assay [31]; 6.3 µM (≈ 15.7 µg/mL) in [3]; 3.1 µM (≈ 7.71 µg/mL) in [32].

For `CC[C@H](C)[C@H](NC(=O)[C@H](CCCCN)NC(=O)[C@@H](NC(=O)[C@H](Cc1ccccc1)NC(=O)[C@H](C)NC(=O)[C@H](CCCCN)NC(=O)CNC(=O)[C@H](Cc1ccccc1)NC(=O)[C@H](CCCCN)NC(=O)[C@H](CCCCN)NC(=O)[C@H](C)N)C(C)C)C(=O)N[C@@H](CC(C)C)C(N)=O` [AKKFGKAFVKIL], the MIC is no less than 94.8 µM in assay [1], no less than 94.8 µM in [2], 33.5 µM (≈ 45.2 µg/mL) in [33] and 190 µM (≈ 256 µg/mL) in assay [3].
